Columns and labels:
[1] = test system: Tyrosine-protein kinase ABL1 (Homo sapiens), P00519 [Y253F]; conditions: Compound concentration 1000.0 nM
[2] = biological target: Calcium/calmodulin-dependent protein kinase type 1 (Homo sapiens) (UniProt Q14012); conditions: Compound concentration 1000.0 nM
[3] = biological target: Cyclin-dependent kinase 3 (Homo sapiens) (UniProt Q00526); conditions: Compound concentration 1000.0 nM
[4] = biological target: Death-associated protein kinase 2 (Homo sapiens) (UniProt Q9UIK4); conditions: Compound concentration 1000.0 nM
[5] = biological target: Mitogen-activated protein kinase kinase kinase 12 (Homo sapiens) (UniProt Q12852); conditions: Compound concentration 1000.0 nM
[6] = biological target: Eukaryotic translation initiation factor 2-alpha kinase 1 (Homo sapiens) (UniProt Q9BQI3); conditions: Compound concentration 1000.0 nM
[7] = biological target: Tyrosine-protein kinase Fgr (Homo sapiens) (UniProt P09769); conditions: Compound concentration 1000.0 nM
[8] = test system: Mast/stem cell growth factor receptor Kit (Homo sapiens), P10721 [V559D]; conditions: Compound concentration 1000.0 nM
[9] = test system: Mast/stem cell growth factor receptor Kit (Homo sapiens), P10721 [V559D,V654A]; conditions: Compound concentration 1000.0 nM
[10] = biological target: T1, Mitogen-activated protein kinase kinase kinase 3 (Homo sapiens) (UniProt Q99759); conditions: Compound concentration 1000.0 nM
T1 sequence (whole entry): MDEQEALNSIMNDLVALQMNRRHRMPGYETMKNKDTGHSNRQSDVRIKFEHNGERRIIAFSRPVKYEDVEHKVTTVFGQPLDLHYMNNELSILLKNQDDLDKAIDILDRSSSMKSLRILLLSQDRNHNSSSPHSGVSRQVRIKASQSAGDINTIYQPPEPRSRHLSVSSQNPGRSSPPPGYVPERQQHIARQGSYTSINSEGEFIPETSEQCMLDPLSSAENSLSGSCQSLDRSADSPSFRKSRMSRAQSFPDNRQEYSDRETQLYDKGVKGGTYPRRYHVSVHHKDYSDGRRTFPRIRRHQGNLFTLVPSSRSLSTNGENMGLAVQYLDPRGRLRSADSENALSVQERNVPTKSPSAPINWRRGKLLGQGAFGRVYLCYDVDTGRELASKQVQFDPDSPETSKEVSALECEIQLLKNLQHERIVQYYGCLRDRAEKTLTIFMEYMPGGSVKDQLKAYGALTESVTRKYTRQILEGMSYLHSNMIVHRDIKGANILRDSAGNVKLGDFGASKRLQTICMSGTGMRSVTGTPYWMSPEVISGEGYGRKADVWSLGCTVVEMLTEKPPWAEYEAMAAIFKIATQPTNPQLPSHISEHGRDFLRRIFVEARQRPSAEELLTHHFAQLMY

[11] = biological target: T2, Dual specificity mitogen-activated protein kinase kinase 7 (Homo sapiens) (UniProt O14733); conditions: Compound concentration 1000.0 nM
T2 sequence (whole entry): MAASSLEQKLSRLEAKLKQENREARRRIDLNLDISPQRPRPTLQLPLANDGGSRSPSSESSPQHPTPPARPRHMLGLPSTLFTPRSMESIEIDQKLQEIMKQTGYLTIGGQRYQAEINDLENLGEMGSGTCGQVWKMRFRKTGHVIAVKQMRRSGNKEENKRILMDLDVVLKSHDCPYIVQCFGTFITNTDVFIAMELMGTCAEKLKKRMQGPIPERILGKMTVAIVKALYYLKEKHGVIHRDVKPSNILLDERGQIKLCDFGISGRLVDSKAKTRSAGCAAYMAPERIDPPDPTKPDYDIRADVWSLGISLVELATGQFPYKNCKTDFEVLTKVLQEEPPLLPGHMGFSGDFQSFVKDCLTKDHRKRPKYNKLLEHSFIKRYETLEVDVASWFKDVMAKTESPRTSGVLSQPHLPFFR

[12] = biological target: Myosin light chain kinase 2, skeletal/cardiac muscle (Homo sapiens) (UniProt Q9H1R3); conditions: Compound concentration 1000.0 nM
[13] = biological target: Serine/threonine-protein kinase PAK 5 (Homo sapiens) (UniProt Q9P286); conditions: Compound concentration 1000.0 nM
[14] = test system: Phosphatidylinositol 4,5-bisphosphate 3-kinase catalytic subunit alpha isoform (Homo sapiens), P42336 [E545A]; conditions: Compound concentration 1000.0 nM
[15] = biological target: Serine/threonine-protein kinase pim-3 (Homo sapiens) (UniProt Q86V86); conditions: Compound concentration 1000.0 nM
[16] = biological target: Serine/threonine-protein kinase N1 (Homo sapiens) (UniProt Q16512); conditions: Compound concentration 1000.0 nM
[17] = biological target: Ribosomal protein S6 kinase alpha-4 (Homo sapiens) (UniProt O75676); conditions: Compound concentration 1000.0 nM
[18] = biological target: Ribosomal protein S6 kinase alpha-3 (Homo sapiens) (UniProt P51812); conditions: Compound concentration 1000.0 nM
[19] = biological target: T3, Serine/threonine-protein kinase Sgk2 (Homo sapiens) (UniProt Q9HBY8); conditions: Compound concentration 1000.0 nM
T3 sequence (whole entry): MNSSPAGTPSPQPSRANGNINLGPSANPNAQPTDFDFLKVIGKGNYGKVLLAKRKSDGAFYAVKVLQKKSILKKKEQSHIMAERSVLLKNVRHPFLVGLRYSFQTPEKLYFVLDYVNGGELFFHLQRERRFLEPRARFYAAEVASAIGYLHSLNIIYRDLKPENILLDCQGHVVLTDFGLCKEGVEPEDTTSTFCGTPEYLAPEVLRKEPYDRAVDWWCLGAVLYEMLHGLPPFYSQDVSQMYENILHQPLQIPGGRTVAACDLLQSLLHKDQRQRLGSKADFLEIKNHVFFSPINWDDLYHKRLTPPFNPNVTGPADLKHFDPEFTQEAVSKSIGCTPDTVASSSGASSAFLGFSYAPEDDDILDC

[20] = biological target: Serine/threonine-protein kinase WNK4 (Homo sapiens) (UniProt Q96J92); conditions: Compound concentration 1000.0 nM
[21] = biological target: 5-hydroxytryptamine receptor 1D (Homo sapiens) (UniProt P28221); conditions: Compound concentration 10.0 uM
[22] = biological target: GABA-A receptor; anion channel (Rattus norvegicus) (UniProt O09028+P15431+P18506+P18508+P19969+P20236+P23574+P23576+P28471+P28473+P30191+P62813+P63079+P63138+Q91ZM7+Q9ES14); conditions: Compound concentration 10.0 uM
[23] = biological target: Alpha-1A adrenergic receptor (Homo sapiens) (UniProt P35348); conditions: Compound concentration 10.0 uM
[24] = biological target: Alpha-2A adrenergic receptor (Homo sapiens) (UniProt P08913); conditions: Compound concentration 10.0 uM
Alpha-2A adrenergic receptor (Homo sapiens), sequence (P08913 whole entry): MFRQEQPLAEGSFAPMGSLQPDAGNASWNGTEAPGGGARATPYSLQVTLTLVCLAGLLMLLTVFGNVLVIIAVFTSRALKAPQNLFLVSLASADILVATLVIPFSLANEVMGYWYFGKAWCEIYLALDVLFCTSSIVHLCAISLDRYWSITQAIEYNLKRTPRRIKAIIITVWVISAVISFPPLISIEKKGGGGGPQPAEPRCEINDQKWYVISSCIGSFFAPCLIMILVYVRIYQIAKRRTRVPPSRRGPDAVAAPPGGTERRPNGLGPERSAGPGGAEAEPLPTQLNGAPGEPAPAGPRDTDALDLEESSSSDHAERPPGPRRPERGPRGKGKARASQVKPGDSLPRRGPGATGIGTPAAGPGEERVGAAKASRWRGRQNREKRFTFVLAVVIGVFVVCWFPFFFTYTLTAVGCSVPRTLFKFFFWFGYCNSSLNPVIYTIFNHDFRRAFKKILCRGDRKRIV

Eukaryotic translation initiation factor 2-alpha kinase 1 (Homo sapiens), sequence (Q9BQI3 whole entry): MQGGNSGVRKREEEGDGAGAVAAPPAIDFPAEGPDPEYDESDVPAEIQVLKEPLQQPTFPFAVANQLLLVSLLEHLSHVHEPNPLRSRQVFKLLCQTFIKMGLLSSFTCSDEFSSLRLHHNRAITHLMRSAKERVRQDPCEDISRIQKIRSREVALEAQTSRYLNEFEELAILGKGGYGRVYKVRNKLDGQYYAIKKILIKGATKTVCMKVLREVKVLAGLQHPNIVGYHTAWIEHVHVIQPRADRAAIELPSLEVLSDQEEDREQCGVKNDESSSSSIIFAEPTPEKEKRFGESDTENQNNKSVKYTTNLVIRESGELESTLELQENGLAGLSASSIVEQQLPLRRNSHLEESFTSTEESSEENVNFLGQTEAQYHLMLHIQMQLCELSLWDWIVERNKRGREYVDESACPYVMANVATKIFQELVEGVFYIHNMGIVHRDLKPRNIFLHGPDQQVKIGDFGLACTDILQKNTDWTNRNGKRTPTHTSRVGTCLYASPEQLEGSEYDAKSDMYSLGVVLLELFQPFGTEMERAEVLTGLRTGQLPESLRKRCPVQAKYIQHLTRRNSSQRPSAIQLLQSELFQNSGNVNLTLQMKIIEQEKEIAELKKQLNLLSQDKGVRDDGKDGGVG
Calcium/calmodulin-dependent protein kinase type 1 (Homo sapiens), sequence (Q14012 whole entry, looked up): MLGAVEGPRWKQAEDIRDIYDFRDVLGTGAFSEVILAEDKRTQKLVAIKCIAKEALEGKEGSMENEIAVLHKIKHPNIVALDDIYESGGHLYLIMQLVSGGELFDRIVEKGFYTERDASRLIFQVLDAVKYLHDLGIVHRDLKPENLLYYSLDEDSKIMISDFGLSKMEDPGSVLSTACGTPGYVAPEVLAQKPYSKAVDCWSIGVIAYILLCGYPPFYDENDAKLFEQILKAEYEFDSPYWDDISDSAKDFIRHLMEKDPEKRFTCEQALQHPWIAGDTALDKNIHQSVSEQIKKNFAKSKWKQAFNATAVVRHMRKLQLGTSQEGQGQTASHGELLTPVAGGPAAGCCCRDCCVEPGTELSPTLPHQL
5-hydroxytryptamine receptor 1D (Homo sapiens), sequence (P28221 whole entry): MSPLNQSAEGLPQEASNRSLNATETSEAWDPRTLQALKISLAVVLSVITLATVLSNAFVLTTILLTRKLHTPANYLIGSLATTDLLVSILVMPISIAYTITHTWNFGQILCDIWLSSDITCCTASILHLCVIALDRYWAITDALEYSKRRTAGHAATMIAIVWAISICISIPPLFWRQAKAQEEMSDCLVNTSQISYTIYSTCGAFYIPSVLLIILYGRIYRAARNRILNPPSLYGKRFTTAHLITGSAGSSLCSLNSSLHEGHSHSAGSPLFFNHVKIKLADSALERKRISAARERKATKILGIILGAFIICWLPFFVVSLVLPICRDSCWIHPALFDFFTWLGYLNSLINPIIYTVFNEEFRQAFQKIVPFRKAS
Serine/threonine-protein kinase WNK4 (Homo sapiens), sequence (Q96J92 whole entry): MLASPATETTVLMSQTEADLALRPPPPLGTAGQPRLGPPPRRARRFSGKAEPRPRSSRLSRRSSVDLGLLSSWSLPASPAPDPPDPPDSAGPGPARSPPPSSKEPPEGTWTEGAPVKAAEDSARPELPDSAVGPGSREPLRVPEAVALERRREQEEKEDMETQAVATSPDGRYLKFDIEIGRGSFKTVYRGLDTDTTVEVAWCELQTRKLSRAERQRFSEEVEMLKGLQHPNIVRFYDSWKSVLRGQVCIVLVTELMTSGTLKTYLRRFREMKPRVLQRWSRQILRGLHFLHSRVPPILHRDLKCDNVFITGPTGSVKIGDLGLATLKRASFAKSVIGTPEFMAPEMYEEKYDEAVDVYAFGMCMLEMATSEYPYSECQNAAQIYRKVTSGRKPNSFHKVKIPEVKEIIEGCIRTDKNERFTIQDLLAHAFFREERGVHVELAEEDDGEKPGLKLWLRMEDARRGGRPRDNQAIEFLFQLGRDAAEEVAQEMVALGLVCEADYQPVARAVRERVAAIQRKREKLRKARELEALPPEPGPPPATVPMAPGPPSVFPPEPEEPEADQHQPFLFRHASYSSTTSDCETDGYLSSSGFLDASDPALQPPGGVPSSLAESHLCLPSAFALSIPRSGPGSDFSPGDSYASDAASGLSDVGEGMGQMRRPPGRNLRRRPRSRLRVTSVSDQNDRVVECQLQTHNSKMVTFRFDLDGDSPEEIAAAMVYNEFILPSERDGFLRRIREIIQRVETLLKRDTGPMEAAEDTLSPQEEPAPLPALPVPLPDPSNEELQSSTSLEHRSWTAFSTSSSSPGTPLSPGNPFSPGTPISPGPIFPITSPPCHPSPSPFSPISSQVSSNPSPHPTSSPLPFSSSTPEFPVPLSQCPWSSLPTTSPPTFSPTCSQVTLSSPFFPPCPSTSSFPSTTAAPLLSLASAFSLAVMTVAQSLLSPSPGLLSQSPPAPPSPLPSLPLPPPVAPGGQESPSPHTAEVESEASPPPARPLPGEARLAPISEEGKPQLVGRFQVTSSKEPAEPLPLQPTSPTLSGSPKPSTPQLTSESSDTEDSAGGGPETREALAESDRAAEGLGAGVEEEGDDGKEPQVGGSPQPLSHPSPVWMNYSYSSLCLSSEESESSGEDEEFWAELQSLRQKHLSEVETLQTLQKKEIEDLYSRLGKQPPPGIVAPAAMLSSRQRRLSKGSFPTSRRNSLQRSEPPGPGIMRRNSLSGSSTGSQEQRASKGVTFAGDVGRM
Mast/stem cell growth factor receptor Kit (Homo sapiens), P10721 [V559D,V654A], sequence (P10721 whole entry V559D/V654A): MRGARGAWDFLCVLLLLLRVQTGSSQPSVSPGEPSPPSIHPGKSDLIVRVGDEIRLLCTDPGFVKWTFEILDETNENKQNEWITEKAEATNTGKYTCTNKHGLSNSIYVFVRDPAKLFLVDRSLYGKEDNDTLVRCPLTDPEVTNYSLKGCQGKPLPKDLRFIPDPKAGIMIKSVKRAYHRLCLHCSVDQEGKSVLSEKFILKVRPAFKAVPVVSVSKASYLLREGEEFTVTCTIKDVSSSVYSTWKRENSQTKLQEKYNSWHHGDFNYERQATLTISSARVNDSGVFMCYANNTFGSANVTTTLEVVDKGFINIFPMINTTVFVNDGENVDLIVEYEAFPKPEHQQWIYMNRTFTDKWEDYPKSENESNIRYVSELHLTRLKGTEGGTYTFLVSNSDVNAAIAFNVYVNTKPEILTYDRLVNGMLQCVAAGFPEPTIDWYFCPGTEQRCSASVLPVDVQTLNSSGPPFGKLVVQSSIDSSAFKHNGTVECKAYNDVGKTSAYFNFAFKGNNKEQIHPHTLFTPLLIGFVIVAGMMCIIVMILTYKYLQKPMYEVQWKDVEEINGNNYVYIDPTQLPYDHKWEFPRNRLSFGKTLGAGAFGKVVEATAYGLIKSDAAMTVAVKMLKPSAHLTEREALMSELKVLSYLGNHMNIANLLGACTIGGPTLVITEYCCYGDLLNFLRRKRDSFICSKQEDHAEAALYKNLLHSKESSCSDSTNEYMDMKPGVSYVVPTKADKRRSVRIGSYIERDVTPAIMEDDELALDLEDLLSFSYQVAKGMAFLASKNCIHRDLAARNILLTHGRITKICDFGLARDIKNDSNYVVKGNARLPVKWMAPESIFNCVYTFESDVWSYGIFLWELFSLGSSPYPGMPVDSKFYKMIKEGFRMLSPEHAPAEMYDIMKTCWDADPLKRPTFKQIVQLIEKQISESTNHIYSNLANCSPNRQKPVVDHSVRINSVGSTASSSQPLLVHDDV
Death-associated protein kinase 2 (Homo sapiens), sequence (Q9UIK4 whole entry, looked up): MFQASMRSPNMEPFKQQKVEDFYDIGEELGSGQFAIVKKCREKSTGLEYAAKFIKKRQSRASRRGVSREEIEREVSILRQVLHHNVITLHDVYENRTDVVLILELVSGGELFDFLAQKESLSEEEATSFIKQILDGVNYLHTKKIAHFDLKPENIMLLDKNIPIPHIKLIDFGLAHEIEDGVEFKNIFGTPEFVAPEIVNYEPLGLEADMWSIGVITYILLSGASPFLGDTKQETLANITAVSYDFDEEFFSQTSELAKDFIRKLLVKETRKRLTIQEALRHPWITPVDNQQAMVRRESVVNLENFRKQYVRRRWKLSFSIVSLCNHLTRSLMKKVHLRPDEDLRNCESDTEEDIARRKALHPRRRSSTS
Mast/stem cell growth factor receptor Kit (Homo sapiens), P10721 [V559D], sequence (P10721 whole entry V559D): as the sequence (P10721 whole entry V559D/V654A) above, with A654V counted along it

Cc1nc(C2CCN(C(=O)c3ccc(OC(F)(F)F)cc3N)CC2)c2ncc(N3CCN(C)CC3)cc2n1 [BAY-693]
inactive: residual activity [1] 98% | residual activity [2] 100% | residual activity [3] 100% | residual activity [4] 100% | residual activity [5] 100% | residual activity [6] 85% | residual activity [7] 100% | residual activity [8] 93% | residual activity [9] 100% | residual activity [10] 92% | residual activity [11] 86% | residual activity [12] 87% | residual activity [13] 99% | residual activity [14] 79% | residual activity [15] 100% | residual activity [16] 100% | residual activity [17] 93% | residual activity [18] 100% | residual activity [19] 94% | residual activity [20] 100% | inhibition [21] -2.17% | inhibition [22] 15% | inhibition [23] -9.85% | inhibition [24] -6.02%

CN1CCN(c2cnc3c(C4CCN(C(=O)c5ccc(OC(F)(F)F)cc5N)CC4)ncnc3c2)CC1 [BAY-885]
inactive: residual activity [1] 100% | residual activity [2] 100% | residual activity [3] 100% | residual activity [4] 90% | residual activity [5] 100% | residual activity [6] 100% | residual activity [7] 100% | residual activity [8] 99% | residual activity [9] 84% | residual activity [10] 94% | residual activity [11] 100% | residual activity [12] 85% | residual activity [13] 100% | residual activity [14] 89% | residual activity [15] 100% | residual activity [16] 100% | residual activity [17] 100% | residual activity [18] 85% | residual activity [19] 92% | residual activity [20] 99% | inhibition [21] 16% | inhibition [22] 21.8% | inhibition [23] 1.11% | inhibition [24] -3.41%
